Legend:
CYP2C9 = CYP2C9 (Homo sapiens (Human), UniProt P11712); assay: Assay B: Cytochrome P450 Inhibition 2C9
[1] = target: over expressed HSD17β9 in HEK293S cells (Homo sapiens (Human), UniProt Q92781); assay: In Vitro 17bHSD9 Cell Assay; assay type: cell-based; settings: HEK293S cells over expressing HSD17β9; retinol to retinal conversion, 18 h, LC-MS/MS; read-out: 17bHSD9 Cell assay IC50
In short: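 HEK293S cells overexpressing HSD17β9 were plated at 10K cells/well in DMEM + 10% FBS and cultured 18 h. Retinol-to-retinal conversion in media was quantified by LC-MS/MS (MRM) as retinal/(retinal + retinol). IC50 was fitted after normalisation to DMSO and full inhibition by a reference inhibitor.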

[2] = target: recombinant 17bHSD13 (N2-K300) (Homo sapiens (Human), UniProt Q7Z5P4); assay: In Vitro 17bHSD13 Enzyme Assay; assay type: biochemical; settings: 80 nM 17bHSD13, 0.5 mM NAD, 20 μM Estradiol, 2.5 h; estradiol to estrone by LC-MS/MS
Sequence of recombinant 17bHSD13 (N2-K300) (Q7Z5P4 2-300): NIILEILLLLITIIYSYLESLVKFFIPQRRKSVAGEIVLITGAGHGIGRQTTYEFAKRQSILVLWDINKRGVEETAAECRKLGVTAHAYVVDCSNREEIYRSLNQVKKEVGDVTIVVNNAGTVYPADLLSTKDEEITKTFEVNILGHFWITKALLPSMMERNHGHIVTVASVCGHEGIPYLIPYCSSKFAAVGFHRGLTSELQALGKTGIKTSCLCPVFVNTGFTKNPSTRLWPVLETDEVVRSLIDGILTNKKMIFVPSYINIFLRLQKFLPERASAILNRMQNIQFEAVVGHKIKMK
In short: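 Human 17bHSD13 (N2-K300, 80 nM) with 0.5 mM NAD, 20 μM estradiol and varied compound in 50 mM Tris-Cl pH 7.4, 5 mM EDTA, 0.01% DDM. Estrone/(estrone+estradiol) ratio read by LC-MS/MS (APCI, positive MRM). Inhibition normalised to DMSO and a known-inhibitor control; IC50 from curve fit.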

[3] = target: over expressed HSD17β13 in HEK293S cells (Homo sapiens (Human), UniProt Q7Z5P4); assay: In Vitro 17bHSD13 Cell Assay; assay type: cell-based; settings: HEK293S cells over expressing HSD17β13; estradiol to estrone conversion, 18 h, LC-MS/MS; read-out: 17bHSD1713 Cell assay IC50
Sequence of over expressed HSD17β13 in HEK293S cells (Q7Z5P4 20-300): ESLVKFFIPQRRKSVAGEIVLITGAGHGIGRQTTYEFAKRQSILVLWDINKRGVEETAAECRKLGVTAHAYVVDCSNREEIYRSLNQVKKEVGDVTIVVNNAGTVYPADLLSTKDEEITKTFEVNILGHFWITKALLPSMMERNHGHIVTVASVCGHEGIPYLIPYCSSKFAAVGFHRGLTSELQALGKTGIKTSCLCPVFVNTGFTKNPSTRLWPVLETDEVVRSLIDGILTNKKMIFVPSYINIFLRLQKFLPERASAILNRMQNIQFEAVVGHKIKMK
In short: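 HEK293S cells overexpressing HSD17β13 convert estradiol to estrone; product read by LC-MS/MS (APCI, positive MRM) as AUC ratio estrone/(estrone+estradiol). Effect normalised between DMSO and maximal inhibition by a known inhibitor control; IC50 from curve fit.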

human hepatocytes = assay: Assay A: Metabolic Stability in Human Hepatocytes; assay type: in vitro ADME; settings: cryopreserved human hepatocytes, 10^6 viable cells/mL, 1 μM compound, 37° C.
Procedure: Assay A: Metabolic Stability in Human Hepatocytes
Hepatocyte metabolic stability was determined in accordance with the method described by Jacobson et al., An optimized automated assay for determination of metabolic stability using hepatocytes: assay validation, variance component analysis, and in vivo relevance. Assay Drug Dev Technol 2007, 5 (3), 403-415. DOI: 10.1089/adt.2007.059, which is incorporated herein by reference. Cryopreserved hepatocytes at a concentration of 10^6 viable cells/mL were used. After thawing, hepatocytes were incubated for 10 min to warm to 37° C. and test compounds, dissolved in acetonitrile, were added to give a final concentration of 1 μM. At 0.5, 5, 15, 30, 45, 60, 80, 100 and 120 min, the incubation system was mixed and 20 μL aliquots were transferred at each time point to wells in a separate plate filled with 80 μL MeCN to stop the reaction. The quenching plate was then vortexed followed by centrifugation, and supernatants were analyzed by LC-MS/MS. Peak areas were determined from extracted ion chromatograms, and the in vitro intrinsic clearance (in vitro CLint, in μL/min/10^6 cells) of parent compound was calculated from the slope in the regression analysis of the natural logarithm of parent concentration vs time curve.

[4] = target: recombinant 17bHSD4 (M1-N311) (Homo sapiens (Human), UniProt P51659); assay: In Vitro 17bHSD4 Enzyme Assay; assay type: biochemical; settings: 40 nM 17bHSD4, 0.125 mM NAD, 15 μM Estradiol, 1.5 h; NADH fluorescence; read-out: 17HSD17b4 Enzyme assay IC50
Sequence of recombinant 17bHSD4 (M1-N311) (P51659 1-311): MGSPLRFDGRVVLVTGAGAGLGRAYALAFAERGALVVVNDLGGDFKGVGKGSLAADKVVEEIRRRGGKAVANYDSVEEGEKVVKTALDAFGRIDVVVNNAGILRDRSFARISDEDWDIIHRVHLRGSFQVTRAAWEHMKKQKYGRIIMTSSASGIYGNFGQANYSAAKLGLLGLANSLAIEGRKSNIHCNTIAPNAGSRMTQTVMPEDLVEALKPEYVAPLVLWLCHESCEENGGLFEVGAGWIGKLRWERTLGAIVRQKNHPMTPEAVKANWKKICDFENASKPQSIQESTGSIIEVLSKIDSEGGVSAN
Procedure: In Vitro 17bHSD4 Enzyme Assay
10 concentration of compounds (0.2 μl) in DMSO was added to GREINER FLUOTRAC 200 384 well plate (781076) using ECHO dispensing (BECKMAN COULTER). 80 nl of 10 mM Estradiol (SIGMA, E8875) was added using Echo dispensing. The enzyme reaction was initiated by addition, using MULTIDROP COMBI dispensing (THERMO FISHER), of 40 μl of a mix containing recombinant 17bHSD4 (M1-N311) and NAD. Final assay conditions were 40 nM of 17bHSD4, 0.125 mM of NAD, 15 μM Estradiol and various concentrations of compound in buffer (5 mM EDTA (TEKNOVA E0306), 0.01% DDM (AFFYMETRIX D310) in 50 mM Tris-Cl, pH 7.4). After each addition plates were centrifuged for 1 min at 150×g (EPPENDORF, 5810R, A-4-81). NADH formation was measured by fluorescence intensity (FI) (Ex360/Em460) at time zero (to) and at 1.5 h (t1) in a PHERASTAR FSX (BMG LABTECH). FI for each sample was calculated as FI at t1 minus FI at t0.
[…] […] was used for curve fitting and calculation of IC50 values.
Compound effect was calculated with the formula below;
where X represents the effect in the presence of test compound, min is DMSO and max is the maximum inhibition of enzyme using a known inhibitor as control.

Sequence of CYP2C9 (P11712 whole entry): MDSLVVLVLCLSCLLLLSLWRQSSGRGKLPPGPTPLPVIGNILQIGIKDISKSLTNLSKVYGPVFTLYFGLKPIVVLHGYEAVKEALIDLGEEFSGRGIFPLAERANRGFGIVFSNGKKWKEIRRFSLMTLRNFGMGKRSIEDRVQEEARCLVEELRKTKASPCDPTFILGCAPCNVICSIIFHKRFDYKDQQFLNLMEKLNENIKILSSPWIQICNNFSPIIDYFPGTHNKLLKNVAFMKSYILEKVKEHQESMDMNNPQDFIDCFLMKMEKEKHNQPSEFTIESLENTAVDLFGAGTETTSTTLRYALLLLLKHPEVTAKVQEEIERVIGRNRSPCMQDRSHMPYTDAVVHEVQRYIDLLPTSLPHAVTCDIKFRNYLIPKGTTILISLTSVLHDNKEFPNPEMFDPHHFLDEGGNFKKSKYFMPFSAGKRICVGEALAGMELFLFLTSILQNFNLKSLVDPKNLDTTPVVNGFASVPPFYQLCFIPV
Sequence of over expressed HSD17β9 in HEK293S cells (Q92781 whole entry): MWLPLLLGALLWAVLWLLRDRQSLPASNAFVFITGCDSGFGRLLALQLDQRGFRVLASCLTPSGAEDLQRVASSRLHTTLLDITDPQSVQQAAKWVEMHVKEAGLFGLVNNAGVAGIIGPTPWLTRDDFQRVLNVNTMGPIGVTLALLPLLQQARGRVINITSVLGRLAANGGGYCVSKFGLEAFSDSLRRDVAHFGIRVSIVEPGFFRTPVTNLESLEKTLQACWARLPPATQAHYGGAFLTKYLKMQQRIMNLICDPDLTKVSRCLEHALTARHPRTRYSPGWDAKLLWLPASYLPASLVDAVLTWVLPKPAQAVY

Row | Compound | IC50 (CYP2C9) [µM] | IC50 [1] [µM] | IC50 [2] [µM] | IC50 [3] [µM] | Assay A: Human Heps Met Clint GMean CLint (μl/min/1E6) (human hepatocytes) | IC50 [4] [µM]
1 | CN(C(=O)c1cc(-c2ccc(F)c(O)c2)no1)c1ccnn1C1CCCCC1 [Example 5, N-(1-Cyclohexyl-1H-pyrazol-5-yl)-3-(4-fluoro-3-hydroxyphenyl)-N-methylisoxazole-5-carboxamide] | 3 | > 50 | 0.093 | 2.61 | – | –
2 | N#Cc1ccc(C2CN(C(=O)c3noc(-c4cc(F)c(F)c(O)c4F)n3)C2)cc1 [Example 59, 4-(1-(5-(2,4,5-Trifluoro-3-hydroxyphenyl)-1,2,4-oxadiazole-3-carbonyl)azetidin-3-yl)benzonitrile] | 13.1 | > 50 | 0.608 | 3.47 | 10.2 | –
3 | COc1ccc(C(C)N(C)C(=O)c2noc(-c3cc(F)c(F)c(O)c3F)n2)cc1 (centres unmarked) [Example 78, N-(1-(4-Methoxyphenyl)ethyl)-N-methyl-5-(2,4,5-trifluoro-3-hydroxyphenyl)-1,2,4-oxadiazole-3-carboxamide] | 3 | – | 0.127 | 0.8 | 28.2 | –
4 | O=C(c1noc(-c2cc(F)c(F)c(O)c2F)n1)N1CC2CC2(c2ccccc2)C1 (centres unmarked) [Example 77, (1-Phenyl-3-azabicyclo[3.1.0]hexan-3-yl)(5-(2,4,5-trifluoro-3-hydroxyphenyl)-1,2,4-oxadiazol-3-yl)methanone] | 0.3 | – | 0.075 | 0.17 | 13.4 | –
5 | O=C(c1noc(-c2cc(F)c(F)c(O)c2F)n1)N1CCC(c2ccccc2)C1 (centres unmarked) [Example 96, (3-Phenylpyrrolidin-1-yl)(5-(2,4,5-trifluoro-3-hydroxyphenyl)-1,2,4-oxadiazol-3-yl)methanone] | 1.3 | 17.3 | 0.047 | 0.17 | – | 18
6 | N#Cc1c(C(=O)N2CCC(O)(C(F)(F)F)CC2)noc1-c1cc(F)c(F)c(O)c1F [Example 26, 3-(4-Hydroxy-4-(trifluoromethyl)piperidine-1-carbonyl)-5-(2,4,5-trifluoro-3-hydroxyphenyl)isoxazole-4-carbonitrile] | 4.4 | – | 0.278 | 2.97 | 9.2 | –
7 | O=C(c1noc(-c2cc(F)c(F)c(O)c2F)n1)N1CCC(Oc2ccc(F)cc2)C1 (centres unmarked) [Example 79, (3-(4-Fluorophenoxy)pyrrolidin-1-yl)(5-(2,4,5-trifluoro-3-hydroxyphenyl)-1,2,4-oxadiazol-3-yl)methanone] | 2 | – | 0.106 | 1.39 | 10.1 | –
8 | N#Cc1c(C(=O)N2CC(F)(C3CC3)C2)noc1-c1cc(F)c(F)c(O)c1F [Example 27, 3-(3-Cyclopropyl-3-fluoroazetidine-1-carbonyl)-5-(2,4,5-trifluoro-3-hydroxyphenyl)isoxazole-4-carbonitrile] | 3.1 | – | 0.382 | 4.09 | 14.0 | –
9 | C[C@@H]1CN(C(=O)c2noc(-c3c(F)c(O)c(F)c(F)c3Br)n2)C[C@H](C)O1 [Example 124, (5-(2-Bromo-3,4,6-trifluoro-5-hydroxyphenyl)-1,2,4-oxadiazol-3-yl)((2R,6S)-2,6-dimethylmorpholino)methanone] | 27 | 24.1 | 0.042 | – | 11.1 | –
10 | O=C(c1noc(-c2cc(F)c(F)c(O)c2F)n1)N1CCC(Oc2cccnc2)CC1 [Example 70, (4-(Pyridin-3-yloxy)piperidin-1-yl)(5-(2,4,5-trifluoro-3-hydroxyphenyl)-1,2,4-oxadiazol-3-yl)methanone] | 18.4 | – | 0.242 | 2.22 | 12.4 | –
11 | O=C(c1noc(-c2cc(F)c(F)c(O)c2F)n1)N1CC[C@@H](c2ccc(Cl)cc2)C1 [Example 103, (S)-(3-(4-Chlorophenyl)pyrrolidin-1-yl)(5-(2,4,5-trifluoro-3-hydroxyphenyl)-1,2,4-oxadiazol-3-yl)methanone] | 0.8 | 24.9 | 0.026 | 0.53 | – | 6.5
12 | N#Cc1c(C(=O)N2CCN(c3ccc4nnc(C(F)(F)F)n4n3)CC2)noc1-c1cc(F)c(F)c(O)c1F [Example 17, 5-(2,4,5-Trifluoro-3-hydroxyphenyl)-3-(4-(3-(trifluoromethyl)-[1,2,4]triazolo[4,3-b]pyridazin-6-yl)piperazine-1-carbonyl)isoxazole-4-carbonitrile] | 0.2 | – | 0.525 | 3.1 | 6.5 | –
13 | CC(C)C1COCCN1C(=O)c1noc(-c2cc(F)c(F)c(O)c2F)n1 (centres unmarked) [Example 35, (3-Isopropylmorpholino)(5-(2,4,5-trifluoro-3-hydroxyphenyl)-1,2,4-oxadiazol-3-yl)methanone] | – | 4.2 | 0.64 | 2.22 | – | 42.2
14 | C[C@H]1CN(C(=O)c2noc(-c3cc(F)c(F)c(O)c3F)n2)C[C@H](C)O1 [Example 54, ((2S,6S)-2,6-Dimethylmorpholino)(5-(2,4,5-trifluoro-3-hydroxyphenyl)-1,2,4-oxadiazol-3-yl)methanone] | – | > 50 | 0.392 | 0.15 | – | > 50
15 | O=C(Nc1ccnn1C1CCCCC1)c1cnc(-c2ccc(F)c(O)c2)o1 [Example 12, N-(1-Cyclohexyl-1H-pyrazol-5-yl)-2-(4-fluoro-3-hydroxyphenyl)oxazole-5-carboxamide] | 21.2 | – | 4.33 | > 50 | – | –
16 | O=C(c1cc(-c2ccc(F)c(O)c2)no1)N1CCC(c2ccccc2)C1 (centres unmarked) [Example 6, (3-(4-Fluoro-3-hydroxyphenyl)isoxazol-5-yl)(3-phenylpyrrolidin-1-yl)methanone] | – | > 50 | 0.041 | 0.98 | – | 89.1
17 | O=C(c1noc(-c2cc(F)c(F)c(O)c2F)n1)N1CCO[C@H](C(F)(F)F)C1 [Example 46, (S)-(5-(2,4,5-Trifluoro-3-hydroxyphenyl)-1,2,4-oxadiazol-3-yl)(2-(trifluoromethyl)morpholino)methanone] | – | 7.7 | 0.517 | 0.37 | – | > 50
18 | CN(C(=O)c1cc(-c2ccc(F)c(O)c2)on1)c1ccnn1C1CCCCC1 [Example 7, N-(1-Cyclohexyl-1H-pyrazol-5-yl)-5-(4-fluoro-3-hydroxyphenyl)-N-methylisoxazole-3-carboxamide] | 8.4 | – | 0.083 | 5.05 | – | > 50

From US20250011311A1, “AMIDO HETEROAROMATIC COMPOUNDS” (AstraZeneca AB, priority 2022, published 2025)
